Test results taken from PubChem BioAssay AID328 (DTP/NCI, 2004).
Several values for one entry are separate records, joined by “and”; a condition that tells them apart may be missing. Equal entries are not always repeated. Toxic doses and inconclusive results are not listed. Starred links: 1 amine or outer side, 2 acyl side, 3 side chain; linkers in the order of their positions; H or OH if unused. Positions of bridges follow the written chain, without caps; N, C: chain ends. Non-standard residues stand in square brackets, D forms with d. Residues, ends and D or L forms follow the SMILES beside them. Chains are numbered I, II in the order given. Actinocin(9to1) = Cc1c2oc3c(C)ccc(C(=O)[*:1])c3nc-2c(C(=O)[*:2])c(N)c1=O; aThr = C[C@H](O)[C@H](N)C(=O)O; NMeV = CN[C@H](C(=O)O)C(C)C; Sar = CNCC(=O)O

Tested on: BDF1 mice, P388 leukemia ip, median survival T/C
Assay: NCI In Vivo Anticancer Drug Screen. Data for tumor model P388 Leukemia (intraperitoneal) in B6D2F1 (BDF1) mice
Details: endpoint: median survival time, higher = longer survival
In short: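 Compound-treated tumour-bearing mice were compared with vehicle-treated controls. Survival was recorded, and the value is the treated-group measurement divided by the control-group measurement (T/C).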

Cc1c2oc3c(C)ccc(C(=O)N[C@@H]4C(=O)N[C@H](C(C)C)C(=O)N5CCC[C@H]5C(=O)N(C)CC(=O)N(C)[C@@H](C(C)C)C(=O)O[C@H]4C)c3nc-2c(C(=O)N[C@@H]2C(=O)N[C@H](C(C)C)C(=O)N3CCC[C@H]3C(=O)N(C)CC(=O)N(C)[C@@H](C(C)C)C(=O)O[C@H]2C)c(N)c1=O (I: [aThr][dV]P[Sar][NMeV] / II: [aThr][dV]P[Sar][NMeV]; ester I:1-I:C, II:1-II:C; linker I:N-II:N via Actinocin(9to1))
T/C (dose: 0.03 mg/kg/injection, schedule: Q01DX009 (ip), vehicle: saline): 233 % of control
T/C (dose: 0.03 mg/kg/injection, schedule: Q04DX003 (ip), vehicle: saline + alcohol): 161 % of control
T/C (dose: 0.06 mg/kg/injection, schedule: Q04DX003 (ip), vehicle: saline + alcohol): 157 % of control
T/C (dose: 0.07 mg/kg/injection, schedule: Q01DX009 (ip), vehicle: saline): 250 % of control
T/C (dose: 0.1 mg/kg/injection, schedule: Q01DX001 (ip), vehicle: saline): 194 % of control
T/C (dose: 0.13 mg/kg/injection, schedule: Q01DX009 (ip), vehicle: saline): 100 % of control
T/C (dose: 0.13 mg/kg/injection, schedule: Q04DX003 (ip), vehicle: saline + alcohol): 184 % of control
T/C (dose: 0.2 mg/kg/injection, schedule: Q01DX001 (ip), vehicle: saline): 225 % of control
T/C (dose: 0.25 mg/kg/injection, schedule: Q01DX001 (ip), vehicle: saline): 178 % of control
T/C (dose: 0.26 mg/kg/injection, schedule: Q01DX001 (ip), vehicle: saline): 167 % of control
T/C (dose: 0.3 mg/kg/injection, schedule: Q04DX003 (ip), vehicle: saline): 100 % of control
T/C (dose: 0.35 mg/kg/injection, schedule: Q01DX001 (ip), vehicle: other): 166 % of control
T/C (dose: 0.35 mg/kg/injection, schedule: Q01DX001 (ip), vehicle: saline): 176 % of control and 185 % of control
T/C (dose: 0.35 mg/kg/injection, schedule: Q04DX003 (ip), vehicle: saline): 95 % of control
T/C (dose: 0.4 mg/kg/injection, schedule: Q01DX001 (ip), vehicle: water): 183 % of control
T/C (dose: 0.4 mg/kg/injection, schedule: Q04DX003 (ip), vehicle: saline): 90 % of control
T/C (dose: 0.5 mg/kg/injection, schedule: Q01DX001 (ip), vehicle: other): 192 % of control
T/C (dose: 0.5 mg/kg/injection, schedule: Q04DX003 (ip), vehicle: saline + alcohol): 79 % of control
T/C (dose: 0.54 mg/kg/injection, schedule: Q01DX001 (ip), vehicle: saline): 195 % of control
T/C (dose: 0.6 mg/kg/injection, schedule: Q01DX001 (ip), vehicle: saline): 223 % of control
T/C (dose: 0.8 mg/kg/injection, schedule: Q01DX001 (ip), vehicle: other): 236 % of control
T/C (dose: 0.9 mg/kg/injection, schedule: Q01DX001 (ip), vehicle: saline): 230 % of control
T/C (dose: 1.2 mg/kg/injection, schedule: Q01DX001 (ip), vehicle: saline): 225 % of control
T/C (dose: 3.1 micrograms/kg/injection, schedule: Q01DX001 (ip), vehicle: saline): 118 % of control
T/C (dose: 3.1 micrograms/kg/injection, schedule: Q01DX010 (ip), vehicle: saline): 170 % of control
T/C (dose: 3.1 micrograms/kg/injection, schedule: Q04DX003 (ip), vehicle: saline): 113 % of control
T/C (dose: 6.3 micrograms/kg/injection, schedule: Q01DX001 (ip), vehicle: saline): 122 % of control
T/C (dose: 12.5 micrograms/kg/injection, schedule: Q01DX009 (ip), vehicle: saline): 177 % of control
T/C (dose: 12.5 micrograms/kg/injection, schedule: Q01DX009 (ip), vehicle: water): 153 % of control
T/C (dose: 12.5 micrograms/kg/injection, schedule: Q01DX010 (ip), vehicle: saline): 225 % of control
T/C (dose: 12.5 micrograms/kg/injection, schedule: Q04DX003 (ip), vehicle: saline): 154 % of control
T/C (dose: 21.6 micrograms/kg/injection, schedule: Q01DX009 (ip), vehicle: saline + alcohol): 238 % of control
T/C (dose: 25.0 micrograms/kg/injection, schedule: Q01DX009 (ip), vehicle: saline + alcohol): 294 % of control and 162 % of control
T/C (dose: 25.0 micrograms/kg/injection, schedule: Q01DX009 (ip), vehicle: saline): 250 % of control and 274 % of control and 200 % of control
T/C (dose: 25.0 micrograms/kg/injection, schedule: Q01DX009 (ip), vehicle: water): 155 % of control
T/C (dose: 25.0 micrograms/kg/injection, schedule: Q01DX010 (ip), vehicle: saline): 245 % of control
T/C (dose: 25.0 micrograms/kg/injection, schedule: Q03HX024 (ip), vehicle: saline): 263 % of control
T/C (dose: 25.0 micrograms/kg/injection, schedule: Q04DX003 (ip), vehicle: saline): 154 % of control
T/C (dose: 30.0 micrograms/kg/injection, schedule: Q03HX024 (ip), vehicle: saline): 250 % of control
T/C (dose: 35.0 micrograms/kg/injection, schedule: Q03HX024 (ip), vehicle: saline): 100 % of control
T/C (dose: 36.0 micrograms/kg/injection, schedule: Q01DX009 (ip), vehicle: saline + alcohol): 241 % of control and 314 % of control
T/C (dose: 37.5 micrograms/kg/injection, schedule: Q01DX009 (ip), vehicle: saline + alcohol): 228 % of control and 169 % of control
T/C (dose: 38.9 micrograms/kg/injection, schedule: Q04DX003 (ip), vehicle: saline + alcohol): 174 % of control
T/C (dose: 50.0 micrograms/kg/injection, schedule: Q01DX001 (ip), vehicle: saline): 154 % of control
T/C (dose: 50.0 micrograms/kg/injection, schedule: Q01DX009 (ip), vehicle: saline + alcohol): 281 % of control and 294 % of control and 191 % of control
T/C (dose: 50.0 micrograms/kg/injection, schedule: Q01DX009 (ip), vehicle: saline): 268 % of control and 271 % of control and 352 % of control
T/C (dose: 50.0 micrograms/kg/injection, schedule: Q01DX009 (ip), vehicle: water): 301 % of control and 106 % of control
T/C (dose: 50.0 micrograms/kg/injection, schedule: Q01DX010 (ip), vehicle: other): 295 % of control
T/C (dose: 50.0 micrograms/kg/injection, schedule: Q01DX010 (ip), vehicle: saline): 295 % of control and 300 % of control
T/C (dose: 50.0 micrograms/kg/injection, schedule: Q04DX003 (ip), vehicle: saline): 177 % of control
T/C (dose: 60.0 micrograms/kg/injection, schedule: Q01DX009 (ip), vehicle: saline + alcohol): 314 % of control and 348 % of control
T/C (dose: 64.8 micrograms/kg/injection, schedule: Q04DX003 (ip), vehicle: saline + alcohol): 168 % of control
T/C (dose: 75.0 micrograms/kg/injection, schedule: Q01DX009 (ip), vehicle: saline + alcohol): 292 % of control and 99 % of control
T/C (dose: 75.0 micrograms/kg/injection, schedule: Q01DX009 (ip), vehicle: saline): 100 % of control
T/C (dose: 75.0 micrograms/kg/injection, schedule: Q04DX003 (ip), vehicle: saline + alcohol): 247 % of control
T/C (dose: 75.0 micrograms/kg/injection, schedule: Q04DX003 (ip), vehicle: saline): 257 % of control and 182 % of control
T/C (dose: 75.0 micrograms/kg/injection, schedule: Q04DX003 (ip), vehicle: water): 183 % of control
T/C (dose: 100.0 micrograms/kg/injection, schedule: Q01DX001 (ip), vehicle: saline): 168 % of control
T/C (dose: 100.0 micrograms/kg/injection, schedule: Q01DX009 (ip), vehicle: saline): 91 % of control and 107 % of control
T/C (dose: 100.0 micrograms/kg/injection, schedule: Q01DX009 (ip), vehicle: water): 336 % of control
T/C (dose: 100.0 micrograms/kg/injection, schedule: Q01DX010 (ip), vehicle: saline): 105 % of control and 120 % of control
T/C (dose: 100.0 micrograms/kg/injection, schedule: Q04DX003 (ip), vehicle: saline): 231 % of control
T/C (dose: 112.5 micrograms/kg/injection, schedule: Q04DX003 (ip), vehicle: saline + alcohol): 274 % of control and 161 % of control
T/C (dose: 150.0 micrograms/kg/injection, schedule: Q04DX003 (ip), vehicle: saline): 273 % of control and 306 % of control
T/C (dose: 200.0 micrograms/kg/injection, schedule: Q01DX001 (ip), vehicle: saline): 177 % of control
T/C (dose: 200.0 micrograms/kg/injection, schedule: Q01DX010 (ip), vehicle: saline): 90 % of control
T/C (dose: 225.0 micrograms/kg/injection, schedule: Q04DX003 (ip), vehicle: saline + alcohol): 290 % of control and 327 % of control and 182 % of control
T/C (dose: 300.0 micrograms/kg/injection, schedule: Q04DX003 (ip), vehicle: saline): 361 % of control
T/C (dose: 300.0 micrograms/kg/injection, schedule: Q04DX003 (ip), vehicle: water): 232 % of control
T/C (dose: 400.0 micrograms/kg/injection, schedule: Q01DX001 (ip), vehicle: saline): 227 % of control
T/C (dose: 400.0 micrograms/kg/injection, schedule: Q04DX003 (ip), vehicle: saline): 236 % of control
T/C (dose: 600.0 micrograms/kg/injection, schedule: Q04DX003 (ip), vehicle: saline + alcohol): 118 % of control
T/C (dose: 600.0 micrograms/kg/injection, schedule: Q04DX003 (ip), vehicle: water): 189 % of control
